Data reported in ChEMBL document CHEMBL1201862, “PubChem BioAssay data set” (2004).
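Grown in 96-well plates, cells were treated for 48 hours with each compound at five concentrations. Insufficient inhibition: endpoint recorded as highest concentration tested. GI50: concentration for 50% inhibition of growth.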 The source made the active and inactive calls. Rule as the data show it: active = GI50 up to about 1.1 µM and inactive = higher.

Key:
Assay in all cases: DTP human tumour cell line panel, 48 h
[1] = system: LXFL 529
[2] = system: SNB-19
[3] = system: SF-295
[4] = system: UACC-62
[5] = system: NCI-H460
[6] = system: SK-OV-3
[7] = system: HOP-92
[8] = system: Malme-3M
[9] = system: HOP-62
[10] = system: SK-MEL-2
[11] = system: HL-60
[12] = system: K562
[13] = system: 786-0
[14] = system: CAKI-1
[15] = system: A549
[16] = system: SK-MEL-5
[17] = system: RXF 393
[18] = system: UO-31
[19] = system: NCI-H522

Measured: GI50

CC1=NN(c2ccccc2)C(=O)C1/N=N/c1ccc(Br)c(C)c1 (stereo unspecified)
inactive: [1] > 100 µM | [2] > 100 µM | [3] > 100 µM | [4] > 100 µM | [5] > 100 µM | [6] > 100 µM | [7] > 100 µM | [8] > 100 µM | [9] > 100 µM | [10] > 100 µM | [11] > 100 µM | [12] > 100 µM | [13] > 100 µM | [14] > 100 µM | [15] > 100 µM | [16] > 100 µM | [17] > 100 µM

COC(=O)c1cc(-c2ccc(OC)c(OC)c2)oc1-c1ccc(OC)c(OC)c1
inactive: [1] 27.7 µM | [3] 23.8 µM | [4] 70.1 µM | [5] 48.5 µM | [6] 38.9 µM | [7] 13.4 µM | [8] 43.7 µM | [9] 35.7 µM | [10] 44.9 µM | [18] 35.6 µM | [11] 64.7 µM | [12] 80.9 µM | [13] 37.3 µM | [14] 54.7 µM | [15] 44 µM | [16] > 10 µM | [17] 19.1 µM

NC1=NCCC1(c1ccccc1)c1ccccn1 (stereo unspecified)
inactive: [1] > 100 µM | [2] > 100 µM | [3] > 100 µM | [4] > 100 µM | [5] > 100 µM | [6] > 100 µM | [7] > 100 µM | [8] > 100 µM | [9] > 100 µM | [10] > 100 µM | [11] > 100 µM | [12] > 100 µM | [13] > 100 µM | [14] > 100 µM | [19] > 100 µM | [15] > 100 µM | [16] > 100 µM | [17] > 100 µM

Cc1cccc(NC2=NC(=O)C(CC(=O)Nc3ccc(Cl)cc3C)S2)c1 (stereo unspecified)
inactive: [1] > 100 µM | [2] > 100 µM | [3] > 100 µM | [4] > 100 µM | [5] > 100 µM | [6] > 100 µM | [8] > 100 µM | [9] > 100 µM | [10] > 100 µM | [18] > 100 µM | [11] > 100 µM | [12] > 100 µM | [13] > 100 µM | [14] > 100 µM | [19] > 100 µM | [15] > 100 µM | [16] > 100 µM | [17] > 100 µM

CC1=C(c2cc(C(=O)Nc3ccc(Cl)cc3)nc(S)n2)Sc2ccccc2N1
inactive: [1] > 100 µM | [2] > 100 µM | [3] > 100 µM | [4] > 100 µM | [5] > 100 µM | [6] > 100 µM | [7] > 100 µM | [8] > 100 µM | [9] > 100 µM | [10] > 100 µM | [18] > 100 µM | [11] > 100 µM | [12] > 100 µM | [13] > 100 µM | [14] > 100 µM | [19] > 100 µM | [15] > 100 µM | [16] > 100 µM | [17] > 100 µM

Cc1ccc(/C=C/C(=O)CCN(C)C)cc1
inactive: [1] 19.4 µM | [2] 26.3 µM | [3] 33 µM | [4] 14.6 µM | [5] 21.8 µM | [6] 45 µM | [7] 19.5 µM | [8] 20.7 µM | [9] 54.5 µM | [18] 18.3 µM | [11] 21.1 µM | [12] 32 µM | [13] 17.9 µM | [14] 13.9 µM | [15] 20.7 µM | [16] 19.4 µM | [17] 23.1 µM
